Holding throughout (assay type): biochemical
Assay [1] has as its target T1, tissue transglutaminase (TG2) (Homo sapiens, UniProt P21980).
T1 construct: purchased Zedira T036 (kit)
T1 sequence (P21980 1-687): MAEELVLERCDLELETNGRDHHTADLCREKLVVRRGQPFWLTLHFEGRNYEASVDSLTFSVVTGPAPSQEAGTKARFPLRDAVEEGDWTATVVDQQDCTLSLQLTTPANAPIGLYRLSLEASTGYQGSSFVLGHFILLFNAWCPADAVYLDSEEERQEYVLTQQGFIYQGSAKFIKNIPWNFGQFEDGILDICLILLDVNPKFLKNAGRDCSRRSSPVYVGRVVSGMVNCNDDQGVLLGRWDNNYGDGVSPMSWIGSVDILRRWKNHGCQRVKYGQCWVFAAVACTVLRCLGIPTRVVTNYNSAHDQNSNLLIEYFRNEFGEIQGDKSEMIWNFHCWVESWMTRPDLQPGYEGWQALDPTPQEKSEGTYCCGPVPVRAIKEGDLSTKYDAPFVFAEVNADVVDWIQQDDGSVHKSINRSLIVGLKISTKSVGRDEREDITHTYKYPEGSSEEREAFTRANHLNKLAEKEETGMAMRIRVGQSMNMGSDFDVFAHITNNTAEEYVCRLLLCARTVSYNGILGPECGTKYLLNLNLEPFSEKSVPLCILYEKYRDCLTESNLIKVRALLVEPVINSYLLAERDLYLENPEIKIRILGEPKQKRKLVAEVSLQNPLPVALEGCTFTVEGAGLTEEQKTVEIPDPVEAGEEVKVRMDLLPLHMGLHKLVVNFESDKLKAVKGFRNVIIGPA
Kind of assay: Comparative transglutaminase selectivity assay with casein and dansylcadaverine as substrates (kit T036): TG2. To be noted: casein as substrate (apparent IC50). An excerpt:
(§1) The comparative determination of different transglutaminases to determine the selectivity was made with casein and dansylcadaverine as substrates. Therefore, the kit T036 (Zedira, Darmstadt; Refs: Lorand et al, Anal Biochem, 1971, 44:221-31) as well as transglutaminase products T009 (transglutaminase 1), T012 (transglutaminase 3), T021 (transglutaminase 6) and T027 (plasma transglutaminase, factor XIII) are used. Therefore, two different IC50 values for the compounds are given.
(§2) The evaluation of the resulting enzyme activity is done using the slope of the straight line obtained by the increase in fluorescence.
(§3) To determine the non-inhibited enzyme activity, DMSO instead of inhibitor stock solution is used. IC50 values are determined by plotting the resulting enzyme activity against the logarithm of the inhibitor concentration. IC50 is defined as the concentration of inhibitor resulting in 50% of enzyme activity.
(§4) It should be noted that it was measured here against casein as substrate, which is why other apparent inhibition values (IC50 value) result.

A further assay concerns the target T2, TG3 (transglutaminase 3) (Homo sapiens, UniProt Q08188).
T2 construct: purchased Zedira T012
T2 sequence (Q08188 1-693): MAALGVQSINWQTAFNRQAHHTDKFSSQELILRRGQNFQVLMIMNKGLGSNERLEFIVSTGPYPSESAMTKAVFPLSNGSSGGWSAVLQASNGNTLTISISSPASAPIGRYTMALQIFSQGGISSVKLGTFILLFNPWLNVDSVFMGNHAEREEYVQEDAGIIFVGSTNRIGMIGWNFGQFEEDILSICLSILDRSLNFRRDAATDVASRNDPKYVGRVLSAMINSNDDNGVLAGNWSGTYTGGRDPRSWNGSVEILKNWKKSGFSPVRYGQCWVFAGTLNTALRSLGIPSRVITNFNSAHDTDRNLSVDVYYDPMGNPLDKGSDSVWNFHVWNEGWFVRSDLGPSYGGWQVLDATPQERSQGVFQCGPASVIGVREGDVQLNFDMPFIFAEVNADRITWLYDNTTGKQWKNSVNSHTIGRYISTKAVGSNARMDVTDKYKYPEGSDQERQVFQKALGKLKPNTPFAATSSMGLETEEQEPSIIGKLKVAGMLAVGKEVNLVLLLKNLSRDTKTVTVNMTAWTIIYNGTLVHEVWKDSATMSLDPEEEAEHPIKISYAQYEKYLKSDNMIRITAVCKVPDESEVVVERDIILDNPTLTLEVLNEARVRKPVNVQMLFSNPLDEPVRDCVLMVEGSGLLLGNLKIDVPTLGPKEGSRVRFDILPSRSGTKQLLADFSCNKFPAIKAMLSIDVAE
The experiment in a line: Comparative transglutaminase selectivity assay with casein and dansylcadaverine as substrates: TG3. To be noted: casein as substrate.
Excerpt: as §1, §2, §3, §4

Assay [2] has as its target T3, FXIII (plasma transglutaminase, factor XIII) (Homo sapiens, UniProt P00488).
T3 construct: purchased Zedira T027
T3 sequence (P00488 1-732): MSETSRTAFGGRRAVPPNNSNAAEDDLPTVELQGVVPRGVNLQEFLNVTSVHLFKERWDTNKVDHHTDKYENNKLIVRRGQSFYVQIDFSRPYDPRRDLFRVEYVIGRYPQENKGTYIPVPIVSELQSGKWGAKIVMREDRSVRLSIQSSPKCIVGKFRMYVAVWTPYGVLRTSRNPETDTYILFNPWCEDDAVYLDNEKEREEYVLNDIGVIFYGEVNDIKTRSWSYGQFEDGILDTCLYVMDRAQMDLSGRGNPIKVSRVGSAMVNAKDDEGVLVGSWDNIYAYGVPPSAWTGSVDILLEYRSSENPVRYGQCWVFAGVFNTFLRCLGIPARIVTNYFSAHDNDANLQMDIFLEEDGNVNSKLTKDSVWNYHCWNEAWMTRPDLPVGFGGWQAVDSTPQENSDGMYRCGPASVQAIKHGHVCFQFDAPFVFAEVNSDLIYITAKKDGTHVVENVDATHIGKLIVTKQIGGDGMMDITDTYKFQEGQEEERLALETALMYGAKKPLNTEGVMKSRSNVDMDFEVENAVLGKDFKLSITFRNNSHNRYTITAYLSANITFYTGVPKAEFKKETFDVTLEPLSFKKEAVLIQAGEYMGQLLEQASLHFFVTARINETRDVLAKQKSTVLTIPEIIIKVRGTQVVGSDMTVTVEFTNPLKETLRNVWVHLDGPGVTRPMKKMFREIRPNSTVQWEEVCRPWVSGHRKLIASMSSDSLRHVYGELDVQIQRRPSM
Kind of assay: Comparative transglutaminase selectivity assay with casein and dansylcadaverine as substrates: FXIII. To be noted: casein as substrate.
Excerpt: as §1, §2, §3, §4

These results are taken from patent publication US9434763B2, “Derivatives of pyridinone as inhibitors for tissue transglutaminase” (ZEDIRA GMBH, priority 2012, dated 2016).

By IC50 is commonly meant the concentration that inhibits the measured activity by half.

With `CCC(CC)CNC(=O)Cn1cccc(NC(=O)[C@H](CC/C=C/C(=O)OC)NC(=O)c2cncn2C)c1=O` [A63, (S,E)-Methyl 7-(1-(2-(2-ethylbutylamino)-2-oxoethyl)-2-oxo-1,2-dihydropyridin-3-ylamino)-6-(1-methyl-1H-imidazole-5-carboxamido)-7-oxohept-2-enoate], the IC50 in assay [1] came to 0.218 µM; on TG3 (transglutaminase 3), 73.9 µM; in assay [2] it was 89 µM.
As to `CCOC(=O)/C=C/CC[C@H](NC(=O)c1ccccc1)C(=O)Nc1cccn(CC(=O)N[C@H](C(=O)O)[C@H](C)CC)c1=O` [A59, (2S,3R)-2-(2-(3-((S,E)-2-Benzamido-7-ethoxy-7-oxohept-5-enamido)-2-oxopyridin-1(2H)-yl)acetamido)-3-methylpentanoic acid], the values for the IC50 (in assay [1]; against TG3 (transglutaminase 3); in assay [2]) were 0.461 µM, 41.1 µM and 79.6 µM, respectively.
For `CCOC(=O)/C=C/CC[C@H](NC(C)=O)C(=O)Nc1cccn(CC(=O)NCC(CC)CC)c1=O` [A62, (S,E)-Ethyl 6-acetamido-7-(1-(2-(2-ethylbutylamino)-2-oxoethyl)-2-oxo-1,2-dihydropyridin-3-ylamino)-7-oxohept-2-enoate] the same measures were 1.96 µM, 99.7 µM and 122 µM.
For `CCOC(=O)/C=C/CC[C@H](NC(=O)c1cncn1C)C(=O)Nc1cccn(CC(=O)NCC(CC)CC)c1=O` [A58, (S,E)-Ethyl 7-(1-(2-(2-ethylbutylamino)-2-oxoethyl)-2-oxo-1,2-dihydropyridin-3-ylamino)-6-(1-methyl-1H-imidazole-5-carboxamido)-7-oxohept-2-enoate] the same measures were 1.54 µM, 109 µM and 120 µM.
For `CCOC(=O)/C=C/CC[C@H](NC(=O)c1cncn1C)C(=O)Nc1cccn(CC(=O)NCCC(C)C)c1=O` [A19, (S,E)-Ethyl 7-(1-(2-(isopentylamino)-2-oxoethyl)-2-oxo-1,2-dihydropyridin-3-ylamino)-6-(1-methyl-1H-imidazole-5-carboxamido)-7-oxohept-2-enoate], the IC50 in assay [1] worked out at 2.39 µM; at TG3 (transglutaminase 3), 128 µM; in assay [2] it was 81.1 µM.
For `CCOC(=O)/C=C/CC[C@H](NC(=O)CCC(=O)O)C(=O)Nc1cccn(CC(=O)NCC(CC)CC)c1=O` [A30, (S,E)-4-(7-Ethoxy-1-(1-(2-(2-ethylbutylamino)-2-oxoethyl)-2-oxo-1,2-dihydropyridin-3-ylamino)-1,7-dioxohept-5-en-2-ylamino)-4-oxobutanoic acid] the same measures were 3.26 µM, 69 µM and 90.9 µM.
For `CCOC(=O)/C=C/CC[C@H](NC(C)=O)C(=O)Nc1cccn(CC(=O)NCCC(CC)CC)c1=O` [A42, (S,E)-ethyl 6-acetamido-7-(1-(2-(3-ethylpentylamino)-2-oxoethyl)-2-oxo-1,2-dihydropyridin-3-ylamino)-7-oxohept-2-enoate] the same measures were 7.1 µM, 104 µM and 109 µM.
For `CCOC(=O)/C=C/CC[C@H](NC(=O)c1cncn1C)C(=O)Nc1cccn(CC(=O)N[C@H](C(=O)O)[C@H](C)CC)c1=O` [A53, (2S,3R)-2-(2-(3-((S,E)-7-Ethoxy-2-(1-methyl-1H-imidazole-5-carboxamido)-7-oxohept-5-enamido)-2-oxopyridin-1(2H)-yl)acetamido)-3-methylpentanoic acid], the IC50 stood at 0.833 µM in assay [1], 72.6 µM against TG3 (transglutaminase 3) and 77.7 µM in assay [2].
For `COC(=O)/C=C/CC[C@H](NC(C)=O)C(=O)Nc1cccn(CC(=O)N2CCCC(C)C2)c1=O` (stereo partly drawn) [A64, (6S,E)-Methyl 6-acetamido-7-(1-(2-(3-methylpipendin-1-yl)-2-oxoethyl)-2-oxo-1,2-dihydropyridin-3-ylamino)-7-oxohept-2-enoate] the same measures were 3 µM, 125 µM and 120 µM.
For `CCOC(=O)/C=C/CC[C@H](NC(=O)CCC(=O)O)C(=O)Nc1cccn(CC(=O)NCCC(C)C)c1=O` [A24, (S,E)-4-(7-Ethoxy-1-(1-(2-(isopentylamino)-2-oxoethyl)-2-oxo-1,2-dihydropyridin-3-ylamino)-1,7-dioxohept-5-en-2-ylamino)-4-oxobutanoic acid] the same measures were 7.5 µM, 119 µM and 133 µM.
On to `CC[C@@H](C)[C@H](NC(=O)Cn1cccc(NC(=O)[C@H](CC/C=C/C(=O)OC)NC(=O)c2cncn2C)c1=O)C(=O)O` [A60, (2S,3R)-2-(2-(3-((S,E)-7-Methoxy-2-(1-methyl-1H-imidazole-5-carboxamido)-7-oxohept-5-enamido)-2-oxopyridin-1(2H)-yl)acetamido)-3-methylpentanoic acid], for which the values for the IC50 (in assay [1]; against TG3 (transglutaminase 3); in assay [2]) were 0.112 µM, 42.3 µM and 73.2 µM, respectively.
For `COC(=O)/C=C/CC[C@H](NC(C)=O)C(=O)Nc1cccn(CC(=O)N2CCC(C(F)(F)F)CC2)c1=O` [A65, (S,E)-Methyl 6-acetamido-7-oxo-7-(2-oxo-1-(2-oxo-2-(4-(trifluoromethyl)piperidin-1-yl)ethyl)-1,2-dihydropyridin-3-ylamino)hept-2-enoate] the same measures were 2.9 µM, 100 µM and 156 µM.
For `CCC(CC)CNC(=O)Cn1cccc(NC(=O)[C@H](CC/C=C/C(=O)OC)NC(C)=O)c1=O` [A79, (S,E)-Methyl 6-acetamido-7-(1-(2-(2-ethylbutylamino)-2-oxoethyl)-2-oxo-1,2-dihydropyridin-3-ylamino)-7-oxohept-2-enoate] the same measures were 0.397 µM, 59.6 µM and 78.2 µM.
For `COC(=O)/C=C/CC[C@H](NC(C)=O)C(=O)Nc1cccn(CC(=O)NCCC(C)C)c1=O` [A29, (S,E)-methyl 6-acetamido-7-(1-(2-(isopentylamino)-2-oxoethyl)-2-oxo-1,2-dihydropyridin-3-ylamino)-7-oxohept-2-enoate] the same measures were 0.4 µM, 70.9 µM and 67.4 µM.
